Reference: patent US20230085307A1, “PYRIDAZINONE COMPOUND AND HERBICIDE” (NISSAN CHEMICAL CORPORATION, priority 2019, published 2023)

Experiments:
late watergrass = experiment: Test Example 1: herbicidal activity, application before weed generation under submerged conditions (Table 16, symbol A); type: in vivo, late watergrass (Echinochloa oryzicola); conditions: 320 g/ha applied herbicide
Summary of the method: (§1)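 Emulsion formulation, water-diluted to set dose, was put onto the flooded surface (4 cm depth, alluvial soil) the same day weeds were sown and 2.5-leaf rice transplanted. After 3 weeks at 25-30 °C under glass, each species was rated 0 (≤5% kill) to 5 (≥90% kill).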

Japanese bulrush = experiment: Test Example 1: herbicidal activity, application before weed generation under submerged conditions (Table 16, symbol B); type: in vivo, Japanese bulrush (Schoenoplectus juncoides); conditions: 320 g/ha applied herbicide
Summary of the method: as §1

oval-leafed pondweed = experiment: Test Example 1: herbicidal activity, application before weed generation under submerged conditions (Table 16, symbol C); type: in vivo, oval-leafed pondweed (Monochoria vaginalis); conditions: 320 g/ha applied herbicide
Summary of the method: as §1

barnyard grass [1] = experiment: Test Example 3: herbicidal effect by foliage application, Wagner pot (Table 18, symbol H); type: in vivo, barnyard grass (Echinochloa crus-galli)
Summary of the method: (§2)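 Plants were sown in alluvial soil held under 0.1–0.5 cm standing water and grown 14 days in a greenhouse at 25–30 °C. An emulsifiable formulation, water-diluted to the set dose, was then sprayed onto the foliage, and effects were scored three weeks later using previously defined criteria.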

Chinese sprangletop = experiment: Test Example 3: herbicidal effect by foliage application, Wagner pot (Table 18, symbol D); type: in vivo, chinese sprangletop (Leptochloa chinensis)
Summary of the method: as §2

rice flat sedge = experiment: Test Example 3: herbicidal effect by foliage application, Wagner pot (Table 18, symbol E); type: in vivo, rice flat sedge (Cyperus iria)
Summary of the method: as §2

southern crabgrass [2] = experiment: Test Example 4: herbicidal effect by soil treatment (Table 19, symbol F); type: in vivo, southern crabgrass (Digitaria ciliaris)
Summary of the method: (§3)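 Pre-emergence style soil spray: seeds under ~1.5 cm sterilized diluvial soil received a uniform coat of emulsion diluted to the predetermined herbicide amount. Greenhouse 25–30° C; readout at week three on previously defined criteria.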

green foxtail [3] = experiment: Test Example 4: herbicidal effect by soil treatment (Table 19, symbol G); type: in vivo, green foxtail (Setaria viridis)
Summary of the method: as §3

barnyard grass [4] = experiment: Test Example 4: herbicidal effect by soil treatment (Table 19, symbol H); type: in vivo, barnyard grass (Echinochloa crus-galli)
Summary of the method: as §3

wild oat [5] = experiment: Test Example 4: herbicidal effect by soil treatment (Table 19, symbol I); type: in vivo, wild oat (Avena fatua)
Summary of the method: as §3

blackgrass [6] = experiment: Test Example 4: herbicidal effect by soil treatment (Table 19, symbol J); type: in vivo, blackgrass (Alopecurus myosuroides)
Summary of the method: as §3

Italian ryegrass [7] = experiment: Test Example 4: herbicidal effect by soil treatment (Table 19, symbol K); type: in vivo, Italian ryegrass (Lolium multiflorum)
Summary of the method: as §3

windgrass [8] = experiment: Test Example 4: herbicidal effect by soil treatment (Table 19, symbol L); type: in vivo, windgrass (Apera spica-venti)
Summary of the method: as §3

velvetleaf [9] = experiment: Test Example 4: herbicidal effect by soil treatment (Table 19, symbol M); type: in vivo, velvetleaf (Abutilon theophrasti)
Summary of the method: as §3

redroot pigweed = experiment: Test Example 4: herbicidal effect by soil treatment (Table 19, symbol N); type: in vivo, redroot pigweed (Amaranthus retroflexus)
Summary of the method: as §3

lambsquarters [10] = experiment: Test Example 4: herbicidal effect by soil treatment (Table 19, symbol O); type: in vivo, lambsquarters (Chenopodium album)
Summary of the method: as §3

persian speedwell [11] = experiment: Test Example 4: herbicidal effect by soil treatment (Table 19, symbol R); type: in vivo, Persian speedwell (Veronica persica)
Summary of the method: as §3

southern crabgrass [12] = experiment: Test Example 5: herbicidal effect by foliage application, plastic box (Table 20, symbol F); type: in vivo, southern crabgrass (Digitaria ciliaris); conditions: foliage application, 320 g/ha, 3 weeks after application
Summary of the method: (§4)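 Plants were sown into sterilized diluvial soil under about 1.5 cm cover and kept in a greenhouse at 25° C. to 30° C. Fourteen days on, foliage received an even spray of the diluted emulsion. Herbicidal or crop effect was judged three weeks afterwards.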

green foxtail [13] = experiment: Test Example 5: herbicidal effect by foliage application, plastic box (Table 20, symbol G); type: in vivo, green foxtail (Setaria viridis); conditions: foliage application, 320 g/ha, 3 weeks after application
Summary of the method: as §4

barnyard grass [14] = experiment: Test Example 5: herbicidal effect by foliage application, plastic box (Table 20, symbol H); type: in vivo, barnyard grass (Echinochloa crus-galli); conditions: foliage application, 320 g/ha, 3 weeks after application
Summary of the method: as §4

wild oat [15] = experiment: Test Example 5: herbicidal effect by foliage application, plastic box (Table 20, symbol I); type: in vivo, wild oat (Avena fatua); conditions: foliage application, 320 g/ha, 3 weeks after application
Summary of the method: as §4

blackgrass [16] = experiment: Test Example 5: herbicidal effect by foliage application, plastic box (Table 20, symbol J); type: in vivo, blackgrass (Alopecurus myosuroides); conditions: foliage application, 320 g/ha, 3 weeks after application
Summary of the method: as §4

Italian ryegrass [17] = experiment: Test Example 5: herbicidal effect by foliage application, plastic box (Table 20, symbol K); type: in vivo, Italian ryegrass (Lolium multiflorum); conditions: foliage application, 320 g/ha, 3 weeks after application
Summary of the method: as §4

windgrass [18] = experiment: Test Example 5: herbicidal effect by foliage application, plastic box (Table 20, symbol L); type: in vivo, windgrass (Apera spica-venti); conditions: foliage application, 320 g/ha, 3 weeks after application
Summary of the method: as §4

velvetleaf [19] = experiment: Test Example 5: herbicidal effect by foliage application, plastic box (Table 20, symbol M); type: in vivo, velvetleaf (Abutilon theophrasti); conditions: foliage application, 320 g/ha, 3 weeks after application
Summary of the method: as §4

lambsquarters [20] = experiment: Test Example 5: herbicidal effect by foliage application, plastic box (Table 20, symbol O); type: in vivo, lambsquarters (Chenopodium album); conditions: foliage application, 320 g/ha, 3 weeks after application
Summary of the method: as §4

persian speedwell [21] = experiment: Test Example 5: herbicidal effect by foliage application, plastic box (Table 20, symbol R); type: in vivo, Persian speedwell (Veronica persica); conditions: foliage application, 320 g/ha, 3 weeks after application
Summary of the method: as §4

chickweed = experiment: Test Example 4: herbicidal effect by soil treatment (Table 19, symbol P); type: in vivo, common chickweed (Stellaria media); conditions: amount of applied herbicide 320 g/ha
Summary of the method: as §3

[22] = amount of applied herbicide 320 g/ha

## C=CCSCc1ccc(-c2sc3ccccc3c2-c2c(O)c(C)nn(C)c2=O)cc1 [1-245]
Late watergrass
  Herbicidal effect on A: late watergrass (grade 0-5): 3 (Herbicidal rate of 40% or more and less than 70%)
Japanese bulrush
  Herbicidal effect on B: Japanese bulrush (grade 0-5): 3 (Herbicidal rate of 40% or more and less than 70%)
oval-leafed pondweed
  Herbicidal effect on C: oval-leafed pondweed (grade 0-5): 0 (Herbicidal rate of 5% or less (almost no effect))
Barnyard grass [1]; 320 g/ha
  herbicidal effect on H (barnyard grass), rating 0-5: 5 (Herbicidal rate of 90% or more (almost completely withered))
Chinese sprangletop; 320 g/ha
  herbicidal effect on D (Chinese sprangletop), rating 0-5: 3 (Herbicidal rate of 40% or more and less than 70%)
Rice flat sedge; 320 g/ha
  herbicidal effect on E (rice flat sedge), rating 0-5: 3 (Herbicidal rate of 40% or more and less than 70%)
Southern crabgrass [2]; AAH 320 g/ha
  F: southern crabgrass, herbicidal effect rating: 0 (Herbicidal rate of 5% or less (almost no effect))
Green foxtail [3]; AAH 320 g/ha
  G: green foxtail, herbicidal effect rating: 0 (Herbicidal rate of 5% or less (almost no effect))
Barnyard grass [4]; AAH 320 g/ha
  H: barnyard grass, herbicidal effect rating: 0 (Herbicidal rate of 5% or less (almost no effect))
Wild oat [5]; AAH 320 g/ha
  I: wild oat, herbicidal effect rating: 0 (Herbicidal rate of 5% or less (almost no effect))
Blackgrass [6]; AAH 320 g/ha
  J: blackgrass, herbicidal effect rating: 0 (Herbicidal rate of 5% or less (almost no effect))
Italian ryegrass [7]; AAH 320 g/ha
  K: Italian ryegrass, herbicidal effect rating: 2 (Herbicidal rate of 20% or more and less than 40%)
Windgrass [8]; AAH 320 g/ha
  L: windgrass, herbicidal effect rating: 0 (Herbicidal rate of 5% or less (almost no effect))
Velvetleaf [9]; AAH 320 g/ha
  M: velvetleaf, herbicidal effect rating: 0 (Herbicidal rate of 5% or less (almost no effect))
Redroot pigweed; AAH 320 g/ha
  N: redroot pigweed, herbicidal effect rating: 3 (Herbicidal rate of 40% or more and less than 70%)
Lambsquarters [10]; AAH 320 g/ha
  O: lambsquarters, herbicidal effect rating: 3 (Herbicidal rate of 40% or more and less than 70%)
Persian speedwell [11]; AAH 320 g/ha
  R: persian speedwell, herbicidal effect rating: 4 (Herbicidal rate of 70% or more and less than 90%)
Southern crabgrass [12]
  effect on southern crabgrass (F): 3 (Herbicidal rate of 40% or more and less than 70%)
Green foxtail [13]
  effect on green foxtail (G): 4 (Herbicidal rate of 70% or more and less than 90%)
Barnyard grass [14]
  effect on barnyard grass (H): 5 (Herbicidal rate of 90% or more (almost completely withered))
Wild oat [15]
  effect on wild oat (I): 1 (Herbicidal rate of 5% or more and less than 20%)
Blackgrass [16]
  effect on blackgrass (J): 3 (Herbicidal rate of 40% or more and less than 70%)
Italian ryegrass [17]
  effect on Italian ryegrass (K): 4 (Herbicidal rate of 70% or more and less than 90%)
Windgrass [18]
  effect on windgrass (L): 4 (Herbicidal rate of 70% or more and less than 90%)
Velvetleaf [19]
  effect on velvetleaf (M): 5 (Herbicidal rate of 90% or more (almost completely withered))
Lambsquarters [20]
  effect on lambsquarters (O): 5 (Herbicidal rate of 90% or more (almost completely withered))
Persian speedwell [21]
  effect on persian speedwell (R): 5 (Herbicidal rate of 90% or more (almost completely withered))

## COc1ccc(-c2sc3ccc(F)cc3c2-c2c(O)c(C)nn(C)c2=O)cc1Cl [2-370]
Late watergrass
  Herbicidal effect on A: late watergrass (grade 0-5): 3 (Herbicidal rate of 40% or more and less than 70%)
Japanese bulrush
  Herbicidal effect on B: Japanese bulrush (grade 0-5): 0 (Herbicidal rate of 5% or less (almost no effect))
oval-leafed pondweed
  Herbicidal effect on C: oval-leafed pondweed (grade 0-5): 0 (Herbicidal rate of 5% or less (almost no effect))
Barnyard grass [1]; [22]
  herbicidal effect on H: barnyard grass: 3 (Herbicidal rate of 40% or more and less than 70%)
Chinese sprangletop; [22]
  herbicidal effect on D: Chinese sprangletop: 2 (Herbicidal rate of 20% or more and less than 40%)
Rice flat sedge; [22]
  herbicidal effect on E: rice flat sedge: 5 (Herbicidal rate of 90% or more (almost completely withered))
Southern crabgrass [2]; [22]
  herbicidal effect, F: southern crabgrass: 0 (Herbicidal rate of 5% or less (almost no effect))
Green foxtail [3]; [22]
  herbicidal effect, G: green foxtail: 0 (Herbicidal rate of 5% or less (almost no effect))
Barnyard grass [4]; [22]
  herbicidal effect, H: barnyard grass: 0 (Herbicidal rate of 5% or less (almost no effect))
Wild oat [5]; [22]
  herbicidal effect, I: wild oat: 0 (Herbicidal rate of 5% or less (almost no effect))
Blackgrass [6]; [22]
  herbicidal effect, J: blackgrass: 0 (Herbicidal rate of 5% or less (almost no effect))
Italian ryegrass [7]; [22]
  herbicidal effect, K: Italian ryegrass: 0 (Herbicidal rate of 5% or less (almost no effect))
Windgrass [8]; [22]
  herbicidal effect, L: windgrass: 0 (Herbicidal rate of 5% or less (almost no effect))
Velvetleaf [9]; [22]
  herbicidal effect, M: velvetleaf: 1 (Herbicidal rate of 5% or more and less than 20%)
Redroot pigweed; [22]
  herbicidal effect, N: redroot pigweed: 2 (Herbicidal rate of 20% or more and less than 40%)
Lambsquarters [10]; [22]
  herbicidal effect, O: lambsquarters: 4 (Herbicidal rate of 70% or more and less than 90%)
chickweed
  herbicidal effect, P: chickweed: 3 (Herbicidal rate of 40% or more and less than 70%)
Persian speedwell [11]; [22]
  herbicidal effect, R: persian speedwell: 4 (Herbicidal rate of 70% or more and less than 90%)
